Assay results taken from patent US9603889B2, “IAP antagonists” (BRISTOL-MYERS SQUIBB COMPANY, priority 2012, dated 2017).

Each molecule was assayed against XIAP BIR3 (N-His-Tb-BIR3(241-356, XIAP)) (Homo sapiens (Human), UniProt P98170). Settings: 130 nM N-His-Tb-BIR3(241-356, XIAP), 1.4 nM fluoresceinated modified SMAC peptide, 60 minutes room temperature; read-out: XIAP BIR3 FPA IC50.
Format: binding

XIAP BIR3 (N-His-Tb-BIR3(241-356, XIAP)), sequence (P98170 241-356): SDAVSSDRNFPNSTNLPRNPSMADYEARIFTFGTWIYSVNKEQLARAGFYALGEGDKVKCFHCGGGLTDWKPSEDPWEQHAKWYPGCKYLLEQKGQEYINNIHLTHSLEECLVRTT

SMILES	IC50 [nM]
CN[C@@H](C)C(=O)N[C@H](C(=O)N1C[C@@H](NC(=O)c2ccc(CN(Cc3ccc4ccccc4c3)C(=O)[C@@H]3Cc4ccccc4CN3C(=O)[C@@H](NC(=O)[C@H](C)NC)C(C)(C)C)cc2)C[C@H]1C(=O)N[C@@H]1CCCc2ccccc21)C(C)(C)C [Example 14, (S)-2-((S)-3,3-Dimethyl-2-((S)-2-(methyl-amino)propanamido)butanoyl)-N-(4-(((3S,5S)-1-((S)-3,3-dimethyl-2-((S)-2-(methylamino)propanamido)butanoyl)-5-(((R)-1,2,3,4-tetra-hydronaphthalen-1-yl)carbamoyl)pyrrolidin-3-yl)carbamoyl)benzyl)-N-(naphthalen-2-ylmethyl)-1,2,3,4-tetrahydro-isoquinoline-3-carboxamide]	40
CN[C@@H](C)C(=O)N[C@H](C(=O)N1C[C@@H](NC(=O)c2ccc(CN(C(=O)[C@@H]3Cc4ccccc4CN3C(=O)[C@@H](NC(=O)[C@H](C)NC)C(C)(C)C)[C@H](C)c3ccc4ccccc4c3)cc2)C[C@H]1C(=O)N[C@@H]1CCCc2ccccc21)C(C)(C)C [Example 15, (S)-2-((S)-3,3-Dimethyl-2-((S)-2-(methylamino)propanamido)butanoyl)-N-(4-(((3S,5S)-1-((S)-3,3-dimethyl-2-((S)-2-(methylamino)propanamido)butanoyl)-5-(((R)-1,2,3,4-tetra-hydronaphthalen-1-yl)carbamoyl)pyrrolidin-3-yl)carbamoyl)benzyl)-N-((R)-1-(naphthalen-2-yl)ethyl)-1,2,3,4-tetrahydro-isoquinoline-3-carboxamide]	90
CN[C@@H](C)C(=O)N[C@H](C(=O)N1CCc2ccccc2[C@H]1C(=O)N(CCc1ccccc1)Cc1ccc(C(=O)NC2C[C@@H](C(=O)NC3CCCc4ccccc43)N(C(=O)[C@@H](NC(=O)[C@H](C)NC)C(C)(C)C)C2)cc1)C(C)(C)C (stereo partly shown) [Example 16]	70
CN[C@@H](C)C(=O)N[C@H](C(=O)N1C[C@@H](NC(=O)c2ccc(CN(C(=O)[C@@H]3Cc4ccccc4CN3C(=O)[C@@H](NC(=O)[C@H](C)NC)C(C)(C)C)[C@@H](C)c3cccc(Cl)c3)cc2)C[C@H]1C(=O)N[C@@H]1CCCc2ccccc21)C(C)(C)C [Example 18, (S)-N-((S)-1-(3-Chlorophenyl)ethyl)-2-((S)-3,3-dimethyl-2-((S)-2-(methylamino)propanamido)butanoyl)-N-(4-(((3S,5S)-1-((S)-3,3-dimethyl-2-((S)-2-(methylamino)propanamido)butanoyl)-5-(((R)-1,2,3,4-tetrahydro-naphthalen-1-yl)carbamoyl)pyrrolidin-3-yl)carbamoyl)benzyl)-1,2,3,4-tetrahydro-isoquinoline-3-carboxamide]	120
CN[C@@H](C)C(=O)N[C@H](C(=O)N1CCc2ccccc2[C@H]1C(=O)N(Cc1ccc(C(=O)N[C@H]2C[C@@H](C(=O)N[C@@H]3CCCc4ccccc43)N(C(=O)[C@@H](NC(=O)[C@H](C)NC)C(C)(C)C)C2)cc1)[C@H](C)c1ccccc1F)C(C)(C)C [Example 19, (S)-2-((S)-3,3-Dimethyl-2-((S)-2-(methylamino)propanamido)butanoyl)-N-(4-(((3S,5S)-1-((S)-3,3-dimethyl-2-((S)-2-(methylamino)propanamido)butanoyl)-5-(((R)-1,2,3,4-tetra-hydronaphthalen-1-yl)carbamoyl)pyrrolidin-3-yl)carbamoyl)benzyl)-N-((R)-1-(2-fluorophenyl)ethyl)-1,2,3,4-tetrahydro-isoquinoline-1-carboxamide]	290
CC[C@H](c1ccccc1)N(Cc1ccc(C(=O)N[C@H]2C[C@@H](C(=O)N[C@@H]3CCCc4ccccc43)N(C(=O)[C@@H](NC(=O)[C@H](C)NC)C(C)(C)C)C2)cc1)C(=O)[C@@H]1Cc2ccccc2CN1C(=O)[C@@H](NC(=O)[C@H](C)NC)C(C)(C)C [Example 20, (S)-2-((S)-3,3-Dimethyl-2-((S)-2-(methylamino)propanamido)butanoyl)-N-(4-(((3S,5S)-1-((S)-3,3-dimethyl-2-((S)-2-(methylamino)propanamido)butanoyl)-5-(((R)-1,2,3,4-tetrahydro-naphthalen-1-yl)carbamoyl)pyrrolidin-3-yl)carbamoyl)benzyl)-N-((R)-1-phenylpropyl)-1,2,3,4-tetra-hydroisoquinoline-3-carboxamide]	110
CN[C@@H](C)C(=O)N[C@H](C(=O)N1C[C@@H](NC(=O)c2ccc(CN(C(=O)[C@@H]3Cc4ccccc4CN3C(=O)[C@@H](NC(=O)[C@H](C)NC)C(C)(C)C)[C@H](C)C(c3ccccc3)c3ccccc3)cc2)C[C@H]1C(=O)N[C@@H]1CCCc2ccccc21)C(C)(C)C [Example 21, (S)-2-((S)-3,3-Dimethyl-2-((S)-2-(methylamino)propanamido)butanoyl)-N-(4-(((3S,5S)-1-((S)-3,3-dimethyl-2-((S)-2-(methylamino)propanamido)butanoyl)-5-(((R)-1,2,3,4-tetra-hydronaphthalen-1-yl)carbamoyl)pyrrolidin-3-yl)carbamoyl)benzyl)-N-((R)-1,1-diphenylpropan-2-yl)-1,2,3,4-tetrahydro-isoquinoline-3-carboxamide]	290
CN[C@@H](C)C(=O)N[C@H](C(=O)N1C[C@@H](NC(=O)c2ccc(CN(C(=O)[C@@H]3Cc4ccccc4CN3C(=O)[C@@H](NC(=O)[C@H](C)NC)C(C)(C)C)[C@H](C)c3ccccc3)cc2)C[C@H]1C(=O)N[C@@H]1CCCc2ccccc21)C(C)(C)C [Example 23, (S)-2-((S)-3,3-Dimethyl-2-((S)-2-(methylamino)propanamido)butanoyl)-N-(4-(((3S,5S)-1-((S)-3,3-dimethyl-2-((S)-2-(methylamino)propanamido)butanoyl)-5-(((R)-1,2,3,4-tetra-hydronaphthalen-1-yl)carbamoyl)pyrrolidin-3-yl)carbamoyl)benzyl)-N-((R)-1-phenylethyl)-1,2,3,4-tetra-hydroisoquinoline-3-carboxamide]	120
CN[C@@H](C)C(=O)N[C@H](C(=O)N1C[C@@H](NC(=O)c2ccc(CN(C(=O)[C@@H]3Cc4ccccc4CN3C(=O)[C@@H](NC(=O)[C@H](C)NC)C(C)(C)C)[C@H](C)c3ccccc3OC)cc2)C[C@H]1C(=O)N[C@@H]1CCCc2ccccc21)C(C)(C)C [Example 24, (S)-2-((S)-3,3-Dimethyl-2-((S)-2-(methylamino)propanamido)butanoyl)-N-(4-(((3S,5S)-1-((S)-3,3-dimethyl-2-((S)-2-(methylamino)propanamido)butanoyl)-5-(((R)-1,2,3,4-tetrahydro-naphthalen-1-yl)carbamoyl)pyrrolidin-3-yl)carbamoyl)benzyl)-N-((R)-1-(2-methoxyphenyl)ethyl)-1,2,3,4-tetrahydro-isoquinoline-3-carboxamide]	130
CN[C@@H](C)C(=O)N[C@H](C(=O)N1C[C@@H](NC(=O)c2ccc(CN(C(=O)[C@@H]3Cc4ccccc4CN3C(=O)[C@@H](NC(=O)[C@H](C)NC)C(C)(C)C)[C@H](C)Cc3ccccc3F)cc2)C[C@H]1C(=O)N[C@@H]1CCCc2ccccc21)C(C)(C)C [Example 25, (S)-2-((S)-3,3-Dimethyl-2-((S)-2-(methylamino)propanamido)butanoyl)-N-(4-(((3S,5S)-1-((S)-3,3-dimethyl-2-((S)-2-(methylamino)propanamido)butanoyl)-5-(((R)-1,2,3,4-tetrahydro-naphthalen-1-yl)carbamoyl)pyrrolidin-3-yl)carbamoyl)benzyl)-N-((R)-1-(2-fluorophenyl)propan-2-yl)-1,2,3,4-tetrahydro-isoquinoline-3-carboxamide]	60
CN[C@@H](C)C(=O)N[C@H](C(=O)N1CC(NC(=O)c2ccc(CN(C(=O)[C@@H]3Cc4ccccc4CN3C(=O)[C@@H](NC(=O)[C@H](C)NC)C(C)(C)C)C(C)c3ccccc3Cl)cc2)C[C@H]1C(=O)NC1CCCc2ccccc21)C(C)(C)C (stereo partly drawn) [Example 26, (3S)-N-(1-(2-Chlorophenyl)ethyl)-2-((S)-3,3-dimethyl-2-((S)-2-(methylamino)propanamido)butanoyl)-N-(4-(((3S,5S)-1-((S)-3,3-dimethyl-2-((S)-2-(methylamino)propanamido)butanoyl)-5-(((R)-1,2,3,4-tetrahydro-naphthalen-1-yl)carbamoyl)pyrrolidin-3-yl)carbamoyl)benzyl)-1,2,3,4-tetra-hydroisoquinoline-3-carboxamide]	190
CN[C@@H](C)C(=O)N[C@H](C(=O)N1CCc2ccccc2[C@H]1C(=O)N(Cc1ccc(C(=O)N[C@H]2C[C@@H](C(=O)N[C@@H]3CCCc4ccccc43)N(C(=O)[C@@H](NC(=O)[C@H](C)NC)C(C)(C)C)C2)cc1)[C@H](C)Cc1ccccc1F)C(C)(C)C [Example 27, (S)-2-((S)-3,3-Dimethyl-2-((S)-2-(methylamino)propanamido)butanoyl)-N-(4-(((3S,5S)-1-((S)-3,3-dimethyl-2-((S)-2-(methylamino)propanamido)butanoyl)-5-(((R)-1,2,3,4-tetrahydro-naphthalen-1-yl)carbamoyl)pyrrolidin-3-yl)carbamoyl)benzyl)-N-((R)-1-(2-fluorophenyl)propan-2-yl)-1,2,3,4-tetrahydro-isoquinoline-1-carboxamide]	90
CN[C@@H](C)C(=O)N[C@H](C(=O)N1C[C@@H](NC(=O)c2ccc(CN(C(=O)[C@@H]3Cc4ccccc4CN3C(=O)[C@@H](NC(=O)[C@H](C)NC)C(C)(C)C)[C@H](C)c3ccccc3C)cc2)C[C@H]1C(=O)N[C@@H]1CCCc2ccccc21)C(C)(C)C [Example 28, (S)-2-((S)-3,3-Dimethyl-2-((S)-2-(methylamino)propanamido)butanoyl)-N-(4-(((3S,5S)-1-((S)-3,3-dimethyl-2-((S)-2-(methylamino)propanamido)butanoyl)-5-(((R)-1,2,3,4-tetra-hydronaphthalen-1-yl)carbamoyl)pyrrolidin-3-yl)carbamoyl)benzyl)-N-((R)-1-(o-tolyl)ethyl)-1,2,3,4-tetrahydro-isoquinoline-3-carboxamide]	160
